The test system of this assay is anti-1-NAP monoclonal antibody (mAb). Kind of assay: ciELISA with the obtained mAb under optimized conditions. As to conditions: for CR (cross-reactivity): CR (%) = [IC50 (NAP)/IC50 (cross-reactant)] × 100, n=3; for IC50: Table 2, optimized condition, n=3. The format is binding, mouse.

In brackets after ≈: the same amount, converted by molar mass.

By IC50 is commonly meant the concentration that inhibits the measured activity by half. As to `Oc1ccc2cccc(O)c2c1` [1,7-dihydroxy naphthalen], the “CR (cross-reactivity)” value is on record as 1.4% and the IC50 was determined as 0.8817 µg/mL (≈ 5.5 µM).
Consider `Oc1ccc2cc(O)ccc2c1` [2,6-dihydroxy naphthalene], for which the “CR (cross-reactivity)” value is on record as 0.4% and the IC50 was found to be 2.8397 µg/mL (≈ 17.7 µM).
Consider `Oc1cccc2ccccc12` [Hapten 1-naphthol, 1-naphthol], for which the “CR (cross-reactivity)” value came to 100% and the IC50 was 0.0125 µg/mL (≈ 0.0867 µM).
On the same counts, the results for `CNC(=O)Oc1cccc2ccccc12` [Carbaryl] are 4.2% and 0.3007 µg/mL (≈ 1.49 µM).
Consider `Oc1ccc2ccccc2c1` [Hapten 2-naphthol, 2-naphthol], for which the “CR (cross-reactivity)” value is recorded as 1.2% and the IC50 is 1.005 µg/mL (≈ 6.97 µM).
For the molecule `Oc1cc(O)c2ccccc2c1` [1,3-dihydroxy naphthalene], the “CR (cross-reactivity)” value is on record as 6.9% and the IC50 came to 0.178 µg/mL (≈ 1.11 µM).
On the same counts, the results for `Oc1cccc2cccc(O)c12` [1,8-dihydroxy naphthalene] are 0.3% and 4.3034 µg/mL (≈ 26.9 µM).
For `Oc1cccc2c(O)cccc12` [1,5-dihydroxy naphthalene], the “CR (cross-reactivity)” value stood at 14.3% and the IC50 is 0.0874 µg/mL (≈ 0.546 µM).
On the same counts, the results for `Oc1ccc(O)c2ccccc12` [1,4-dihydroxy naphthalene] are 6.2% and 0.2007 µg/mL (≈ 1.25 µM).
In the case of `Oc1ccc2c(O)cccc2c1` [1,6-dihydroxy naphthalene], the “CR (cross-reactivity)” value is reported as 2.5% and the IC50 came to 0.5028 µg/mL (≈ 3.14 µM).

The record behind these values is publication PMC7200204 (Ecotoxicology and environmental safety, 2020).
